These are literature values, as cited in US20260248929A1, “MINOXIDIL-CROSSLINKED INJECTABLE HYDROGELS FOR LOCAL AND SUSTAINED INTRADERMAL DELIVER Y” (THE TRUSTEES OF THE UNIVERSITY OF PENNSYLVANIA, priority 2023, published 2026).

The conditions of the data set: topical application to skin.

Regarding `Nc1cc(N2CCCCC2)nc(N)[n+]1[O-]` [minoxidil], the “minoxidil absorbed from a topical application” value is 1%.
